Data reported in ChEMBL document CHEMBL1151478, “ent-Kaurane diterpenoids from Isodon scoparius” (J Nat Prod, 2009).

Assays:
Format in all cases: functional, cell-based
[1] = test system: NB-4; assay: Cytotoxicity against human NB4 cells after 48 hrs by WST-8 assay; conditions: NB-4, 48 h
[2] = test system: MCF7; assay: Cytotoxicity against human MCF7 cells after 48 hrs by WST-8 assay; conditions: MCF7, 48 h
[3] = test system: SH-SY5Y; assay: Cytotoxicity against human SH-SY5Y cells after 48 hrs by WST-8 assay
[4] = test system: PC-3; assay: Cytotoxicity against human PC3 cells after 48 hrs by WST-8 assay; conditions: PC-3, 48 h
[5] = test system: A549; assay: Cytotoxicity against human A549 cells after 48 hrs by WST-8 assay; conditions: A549, 48 h

Compound	IC50 [1] [µM]	IC50 [2] [µM]	IC50 [3] [µM]	IC50 [4] [µM]	IC50 [5] [µM]
CC(=O)CC[C@H]1C(=O)[C@@]23[C@H](O)C[C@@H]4[C@@](C)(CO)CCC[C@@]4(C)[C@@H]2C(=O)[C@H](O)[C@H]1[C@H]3O	> 10	> 10	> 10	> 10	> 10
COc1cc([C@@H]2c3cc4c(cc3[C@@H](O[C@@H]3O[C@@H]5CO[C@@H](C)O[C@H]5[C@H](O)[C@H]3O)[C@H]3COC(=O)[C@H]23)OCO4)cc(OC)c1O [ETOPOSIDE]	1.3	–	1.7	13.6	1.7
C=C1C(=O)[C@@]23[C@H](O)C[C@@H]4C(C)(C)CC[C@H](O)[C@@]4(C)[C@@H]2C[C@H](O)[C@@H]1[C@H]3O [EXCISANIN A]	8.2	> 10	> 10	> 10	> 10
C=C1C(=O)[C@@]23CC[C@@H]4[C@@](C)(CO)CC[C@H](O)[C@@]4(C)[C@@H]2CC[C@@H]1[C@H]3O [EXCISANIN K]	8.7	> 10	> 10	> 10	> 10
C=C1C(=O)[C@@]23[C@H](O)C[C@@H]4[C@@](C)(CO)CCC[C@@]4(C)[C@@H]2C(=O)C[C@@H]1[C@H]3O [HENRYINE A]	2.3	> 10	5.1	7	> 10
CC1(C)CCC[C@]2(C)[C@@H]1C[C@@H](O)[C@@]13C(=O)[C@@]4(CO4)[C@@H]([C@H]1O)[C@@H](O)C(=O)[C@@H]23 [ISOSCOPARIN D]	> 10	> 10	> 10	> 10	> 10
C=C1[C@@H]2[C@@H](O)[C@H](O)[C@H]3[C@]4(C)CCCC(C)(C)[C@H]4CC(=O)[C@@]3([C@@H]1OC(C)=O)[C@@H]2O [ISOSCOPARIN F]	2.2	3.9	9.2	> 10	9.9
C=C1[C@@H](O)[C@@]23[C@H](O)C[C@@H]4[C@@](C)(CO)CCC[C@@]4(C)[C@@H]2C(=O)C[C@@H]1[C@H]3O [ISOSCOPARIN H]	> 10	> 10	> 10	> 10	> 10
C=C1C(=O)[C@@]23[C@H](O)C[C@H]4[C@@](C)(CCC[C@]4(C)C=O)[C@@H]2[C@@H](O)C[C@@H]1[C@H]3O [ISOSCOPARIN I]	4.4	> 10	> 10	> 10	> 10
C=C1C(=O)[C@@]23[C@H](O)C[C@@H]4C(C)(C)CCC[C@@]4(C)[C@@H]2C[C@H](O)[C@@H]1[C@H]3O [ISOSCOPARIN L]	0.7	2.2	6.8	> 10	6.4
C=C1C(=O)[C@@]23[C@H](O)C[C@@H]4C(C)(C)CC[C@H](O)[C@@]4(C)[C@@H]2CC[C@@H]1[C@H]3O [KAMEBANIN]	0.9	8.4	8.9	> 10	7.3
C=C1[C@@H](O)[C@]23[C@H](O)[C@H]1CC[C@H]2[C@@]12CO[C@@]3(O)[C@@H](O)[C@@H]1C(C)(C)CC[C@@H]2OC(C)=O [LASIOKAURINOL]	> 10	> 10	> 10	> 10	> 10
CC(=O)O[C@H]1C(=O)[C@@]2(C)[C@H]([C@H](OC(=O)c3ccccc3)[C@]3(O)C[C@H](OC(=O)[C@H](O)[C@@H](NC(=O)c4ccccc4)c4ccccc4)C(C)=C1C3(C)C)[C@]1(OC(C)=O)CO[C@@H]1C[C@@H]2O [PACLITAXEL]	0.1	0.1	0.2	0.2	0.1
C=C1C(=O)[C@@]23[C@H](O)C[C@@H]4C(C)(C)CCC[C@@]4(C)[C@@H]2C(=O)[C@H](O)[C@@H]1[C@H]3O [PHYLLOSTACHYSIN D]	0.3	> 10	> 10	> 10	> 10
C=C1C(=O)[C@@]23CC[C@@H]4C(C)(C)CC[C@H](O)[C@@]4(C)[C@@H]2[C@@H](O)C[C@@H]1[C@H]3O [PHYLLOSTACHYSIN H]	> 10	> 10	> 10	> 10	> 10
C=C1C(=O)[C@@]23[C@H](O)C[C@@H]4C(C)(C)CC[C@H](O)[C@@]4(C)[C@@H]2[C@@H](O)C[C@@H]1[C@H]3O [RABDOINFLEXIN B]	> 10	> 10	> 10	> 10	> 10
C=C1C(=O)[C@@]23[C@H](O)C[C@@H]4C(C)(C)CCC[C@@]4(C)[C@@H]2[C@@H](O)[C@H](O)[C@@H]1[C@H]3OC(C)=O [RABDOKUNMIN A]	2.7	> 10	> 10	> 10	2.8
C=C1C(=O)[C@@]23[C@H](O)C[C@@H]4[C@@](C)(CO)CCC[C@@]4(C)[C@@H]2C[C@H](O)[C@@H]1[C@H]3O [RABDOKUNMIN C]	> 10	> 10	> 10	> 10	> 10
C=C1C(=O)[C@@]23[C@H](O)C[C@@H]4[C@@](C)(CO)CCC[C@@]4(C)[C@@H]2[C@@H](O)C[C@@H]1[C@H]3O [RABDOKUNMIN D]	> 10	> 10	> 10	> 10	> 10
C=C1C(=O)[C@@]23[C@H](O)C[C@@H]4[C@@](C)(CO)CCC[C@@]4(C)[C@@H]2C(=O)[C@H](O)[C@@H]1[C@H]3O [RABDOLOXIN A]	> 10	> 10	> 10	> 10	> 10
C=C1C(=O)[C@@]23[C@H](O)C[C@@H]4C(C)(C)CCC[C@@]4(C)[C@@H]2[C@@H](O)[C@H](O)[C@@H]1[C@H]3O [RABDOLOXIN B]	2.8	> 10	> 10	> 10	1.7
